Measured values from patent publication US5840722A, “Use of carboxylic acid derivatives as drugs” (BASF Aktiengesellschaft, priority 1994, dated 1998).
Where two headings read alike, the source gives them in different places.

Columns and labels:
ETB receptor = target: T1, ETB receptor (Cavia porcellus, UniProt H0VTF3); test: Receptor-binding studies, ETB receptor binding assay ([125I]-RZ3, guinea pig cerebellar membranes)
T1 construct: Guinea pig cerebella were homogenized in a Potter-Elvejhem homogenizer; from tissue; host or cells: guinea pig cerebellum (membranes)
T1 sequence (H0VTF3 27-415): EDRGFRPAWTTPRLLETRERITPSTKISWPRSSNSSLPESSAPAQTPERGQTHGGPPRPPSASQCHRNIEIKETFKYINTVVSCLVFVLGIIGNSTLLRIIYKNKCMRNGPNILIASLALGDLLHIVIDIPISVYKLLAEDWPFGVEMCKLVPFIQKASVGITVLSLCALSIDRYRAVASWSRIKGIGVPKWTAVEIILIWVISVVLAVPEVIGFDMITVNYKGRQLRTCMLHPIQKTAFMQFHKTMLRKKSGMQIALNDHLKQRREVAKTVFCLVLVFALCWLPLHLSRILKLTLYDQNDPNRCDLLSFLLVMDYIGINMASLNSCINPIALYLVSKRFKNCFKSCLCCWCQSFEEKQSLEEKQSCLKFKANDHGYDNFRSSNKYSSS
Procedure: Cloned human ETA receptor-expressing CHO cells and guinea pig cerebellar membranes with>60% ETB receptors compared with ETA receptors were used for binding studies.
Guinea pig cerebella were homogenized in a Potter-Elvejhem homogenizer and obtained by differential centrifugation at 1000×g for 10 min and repeated centrifugation of the supernatant at 20,000×g for 10 min.
(§1) (ETB receptor assay) in the presence and absence of test substance. The non-specific binding was determined using 10^-7 M ET1. After 30 min, the free and the bound radioligand were separated by filtration through a GF/B glass fiber filter (Whatman, England) in a Skatron cell collector (Skatron, Lier, Norway), and the filters were washed with ice-cold tris-HCl buffer, pH 7.4 with 0.2% BSA. The radioactivity collected on the filters was quantified using a Packard 2200 CA liquid scintillation counter.
The Ki values were determined by non-linear regression analysis using the LIGAND program.

[1] = target: T2, endothelin receptor of subtype A (Rattus norvegicus, UniProt P26684); test: Functional in vitro assay system for endothelin receptor (subtype A) antagonists (ET1-induced intracellular calcium increase); assay type: cell-based
T2 construct: endogenous endothelin receptor of subtype A has been detected; endogenous in cells
T2 sequence (P26684 21-426): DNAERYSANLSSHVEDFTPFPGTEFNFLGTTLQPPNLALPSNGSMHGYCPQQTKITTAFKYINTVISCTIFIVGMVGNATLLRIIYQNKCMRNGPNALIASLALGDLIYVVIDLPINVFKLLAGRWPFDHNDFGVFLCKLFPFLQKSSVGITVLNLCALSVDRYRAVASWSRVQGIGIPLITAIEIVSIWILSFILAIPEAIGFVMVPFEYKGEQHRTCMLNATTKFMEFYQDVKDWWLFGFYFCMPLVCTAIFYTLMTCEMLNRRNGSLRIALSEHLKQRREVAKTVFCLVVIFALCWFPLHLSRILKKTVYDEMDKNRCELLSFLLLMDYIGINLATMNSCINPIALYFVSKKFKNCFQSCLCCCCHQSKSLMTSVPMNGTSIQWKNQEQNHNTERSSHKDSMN
From the text: Functional in vitro assay system for searching for endothelin receptor (subtype A) antagonists This assay system is a functional cell-based assay for endothelin receptors. Certain cells when stimulated with endothelin 1 (ET1) show an increase in the intracellular calcium concentration. This increase can be measured in intact cells which have been loaded with calcium-sensitive dyes. […] The cells were then washed twice with buffer A and resuspended at 2 10^6 /ml. The fluorescence signal at Ex/Em 380/510 from 2×10^5 cells per mL was recorded continuously at 30° C. The test substances were added to the cells and, after incubation with ET1 for 3 min, the maximum change in the fluorescence was determined. The response of the cells to ET1 without previous addition of a test substance served as control and was set equal to 100%.

human ETA receptor = target: T3, human ETA receptor (Homo sapiens, UniProt P25101); test: Receptor-binding studies, ETA receptor binding assay ([125I]-ET1)
T3 construct: expressed in transfected cells; host or cells: CHO cells (membranes)
T3 sequence (P25101 21-427): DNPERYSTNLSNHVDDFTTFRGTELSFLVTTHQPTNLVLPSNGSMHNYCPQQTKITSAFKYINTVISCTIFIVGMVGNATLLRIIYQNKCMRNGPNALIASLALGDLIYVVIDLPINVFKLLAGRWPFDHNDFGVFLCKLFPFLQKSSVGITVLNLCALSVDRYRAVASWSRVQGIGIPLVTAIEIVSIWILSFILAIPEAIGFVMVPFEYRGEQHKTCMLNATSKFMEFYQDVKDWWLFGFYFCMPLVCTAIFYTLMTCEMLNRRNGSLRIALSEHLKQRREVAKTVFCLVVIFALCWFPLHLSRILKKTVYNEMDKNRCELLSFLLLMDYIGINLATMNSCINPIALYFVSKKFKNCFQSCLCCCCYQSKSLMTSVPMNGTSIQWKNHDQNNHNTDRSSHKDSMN
Procedure: as §1, with “After 48 h, the cells were washed with PBS and incubated with 0.05% trypsin-containing PBS for 5 min. […] The membranes were centrifuged at 20,000×g for 10 min, and the pellet was stored in liquid nitrogen. […] (ETB” for “(ETB”, “counter. The Ki values were determined by non-linear regression analysis using the LIGAND program.” for “counter.”

Ki (ETB receptor; guinea pig cerebellar membranes, 25 pM [125I]-RZ3, 25° C., 30 min, read-out: Ki ET-B)	IC50 ([1]; rat fibroblasts loaded with Fura 2-am, ET1-induced fluorescence change, 30° C., read-out: IC50)	Ki (human ETA receptor; cloned human ETA receptor-expressing CHO cell membranes, 25 pM [125I]-ET1, 25° C., 30 min, read-out: Ki ET-A)	Structure (SMILES)	Ki (ETB receptor)	IC50 [1]	Ki (human ETA receptor)
3000 nM	740 nM	250 nM	COc1cc(OC)nc(OC(C(=O)O)C(C)(Oc2ccc(C(C)C)cc2)c2ccccc2)n1 (stereo not drawn) [Compound 4.42]			
			COc1cc(OC)nc(OC(C(=O)O)C(C)(Oc2ccc(SC)cc2)c2ccccc2)n1 (stereo not drawn) [Compound 4.58]	4700 nM	1000 nM	160 nM
